Read-outs that look alike come from different tables or passages of the source.
Tests used:
[1] = test system: hippocampus neurons; experiment: Inhibition of reduction in survival rate of rat embryonic hippocampus neurons in serum-free culture; format: cell-based; conditions: for viability at 1 µg/mL / viability at 0.1 µg/mL / viability at 0.01 µg/mL / viability at 0.001 µg/mL / viability at 0.0001 µg/mL: Rattus norvegicus, Neuron, 72 h, read-out: survival rate of neurons (control group taken as 100%); for viability at 1 µg/mL: 10^-6 g/ml; for inhibitory effect against reduction in survival rate of hippocampus neurons (in words): within the range of 1-1,000 ng/ml
From the text: From a rat at the 18th day of pregnancy (having an 18-day old embryo) the uterus was aseptically removed under etherification, and the fetus was obtained. The whole brain was collected from the fetus. From the brain placed in an L-15 medium, the hippocampus was separated under a microscope and minced with a knife. […] The thus-isolated cells were suspended in Eagle's MEM medium supplemented with 10% fetal calf serum, and inoculated at a concentration of 4×10^4 cells/cm^2 into wells of a 48-well plate which had been coated with poly-L-lysin in advance. […] After three-days' additional incubation, the cells were fixed, stained, and the number of surviving cells in each well was counted.
When the survival rate of the neurons in the control group was taken as 100%: […]

[2] = test system: neurites of hippocampus cells; experiment: Branching promotion effect on neurites of hippocampus cells; format: cell-based, rat; conditions: number of branches from the longest neurite, one and two days after addition, FIG. 1
Experimental: The hippocampus cells obtained in a manner similar to that in Example 1 were incubated for 24 hours in a medium containing fetal calf serum, then for further 24 hours in a serum-free medium. Subsequently, compound (1-1) was added. When compound (1-1) was added, and at the times of one and two days after addition, photographs were taken of the same cells. The number of branches from the longest neurite was counted.

[3] = Oral acute toxicity (LD50) in rats; conditions: rat, in vivo, oral administration
[4] = Oral acute toxicity (LD50) in mice; conditions: mouse, in vivo, oral administration
[5] = three days' incubation, serum-free medium
[6] = 10^-7 g/ml, three days' incubation, serum-free medium
[7] = 10^-8 g/ml, three days' incubation, serum-free medium
[8] = 10^-9 g/ml, three days' incubation, serum-free medium
[9] = 10^-10 g/ml, three days' incubation, serum-free medium

Compound	viability at 1 µg/mL [1, 5] [%]	viability at 0.1 µg/mL [1, 6] [%]	viability at 0.01 µg/mL [1, 7] [%]	viability at 0.001 µg/mL [1, 8] [%]	inhibitory effect against reduction in survival rate of hippocampus neurons (in words) [1]	other results
C=CC[S+]([O-])C[C@H](N)C(=O)O (stereo partly drawn) [(1-2)]	130 to 150	130 to 150	110 to 130	110 to 130	–	viability at 0.0001 µg/mL [1, 9]: 90 to 110%
C=CCS(=O)(=O)C[C@H](N)C(=O)O [(1-3)]	130 to 150	110 to 130	110 to 130	110 to 130	–	–
C=CCSSC[C@H](N)C(=O)O [(1-4)]	90 to 110	130 to 150	110 to 130	90 to 110	–	viability at 0.0001 µg/mL [1, 9]: 90 to 110%
C=CCSC[C@H](NC(C)=O)C(=O)O [(1-5)]	110 to 130	110 to 130	110 to 130	90 to 110	–	–
C=CCSC[C@H](NC(=O)CC[C@H](N)C(=O)O)C(=O)O [(1-6)]	130 to 150	130 to 150	130 to 150	90 to 110	–	viability at 0.0001 µg/mL [1, 9]: 90 to 110%
C=CCSC[C@H](NC(=O)CC[C@H](N)C(=O)O)C(=O)NCC(=O)O [(1-7)]	130 to 150	130 to 150	90 to 110	90 to 110	–	viability at 0.0001 µg/mL [1, 9]: 90 to 110%
C=CCSCC[C@H](N)C(=O)O [(1-9)]	90 to 110	110 to 130	90 to 110	–	–	–
C=CCS [(1-10)]	110 to 130	110 to 130	110 to 130	90 to 110	–	viability at 0.0001 µg/mL [1, 9]: 90 to 110%
C=CCSCC=C [(1-11)]	110 to 130	110 to 130	110 to 130	90 to 110	–	viability at 0.0001 µg/mL [1, 9]: 90 to 110%
C=CCSSCC=C [(1-12)]	–	–	–	–	–	viability at 0.0001 µg/mL [1]: 90 to 110%; viability at 0.001 µg/mL [1]: 90 to 110%; viability at 0.01 µg/mL [1]: 110 to 130%; viability at 0.1 µg/mL [1]: 110 to 130%
C=CCSC(CC(=O)O)C(=O)O (stereo not drawn) [(1-13)]	110 to 130	110 to 130	90 to 110	–	–	–
C=CCSc1ccccc1C(=O)O [(1-14)]	110 to 130	110 to 130	90 to 110	–	–	–
C=CCSc1nc2ccccc2o1 [(1-15)]	110 to 130	110 to 130	90 to 110	–	–	–
C=CCSC[C@H](N)C(=O)O [Compound (1-1)]	130 to 150	130 to 150	110 to 130	110 to 130	–	branching promotion effect on neurites [2]: confirmed to have branching promotion effect on neurites; LD50 [3]: ≥ 1000 mg/kg; LD50 [4]: ≥ 1000 mg/kg; viability at 0.0001 µg/mL [1, 9]: 90 to 110%
N[C@@H](CS)C(=O)O [L-cysteine, reference compound]	–	–	–	–	No inhibitory effect	–
C=CCNC(N)=O [N-allyl urea, reference compound]	–	–	–	–	No inhibitory effect	–
C=CCOC(=O)[C@@H](N)CS [O-allyl-L-cysteine, reference compound]	–	–	–	–	No inhibitory effect	–
CC=CSC[C@H](N)C(=O)O [S-(1-propenyl)-L-cysteine, reference compound]	–	–	–	–	No inhibitory effect	–
C=CCCSC[C@H](N)C(=O)O [S-(3-butenyl)-L-cysteine, reference compound]	–	–	–	–	No inhibitory effect	–
CSC[C@H](N)C(=O)O [S-methyl-L-cysteine, reference compound]	–	–	–	–	No inhibitory effect	–
C[S+]([O-])C[C@H](N)C(=O)O (stereo partly drawn) [S-methyl-L-cysteinesulfoxide, reference compound]	–	–	–	–	No inhibitory effect	–
C#CCSC[C@H](N)C(=O)O [S-propargyl-L-cysteine, reference compound]	–	–	–	–	No inhibitory effect	–
CCCSC[C@H](N)C(=O)O [S-propyl-L-cysteine, reference compound]	–	–	–	–	No inhibitory effect	–
C=CCO [allyl alcohol, reference compound]	–	–	–	–	No inhibitory effect	–
C=CCNCC(=O)O [allyl glycine, reference compound]	–	–	–	–	No inhibitory effect	–
C=CCOCC=C [diallyl ether, reference compound]	–	–	–	–	No inhibitory effect	–
CCCSSCCC [dipropyldisulfide, reference compound]	–	–	–	–	No inhibitory effect	–
CCCSCCC [dipropylsulfide, reference compound]	–	–	–	–	No inhibitory effect	–
C=CCc1ccc(O)c(OC)c1 [eugenol, reference compound]	–	–	–	–	No inhibitory effect	–
CCCSC[C@H](NC(=O)CC[C@H](N)C(=O)O)C(=O)O [gamma-glutamyl-S-propyl-L-cysteine, reference compound]	–	–	–	–	No inhibitory effect	–
